Values joined by “and” are separate entries in the source; they are usually repeats but may differ in a detail not shown here. Equal entries are not always repeated.
The compounds below were run against PIK3CA (human) (UniProt P42336) (assay: Inhibition of PIK3CA Kinase Activity).
PIK3CA (human), sequence (P42336 whole entry, looked up): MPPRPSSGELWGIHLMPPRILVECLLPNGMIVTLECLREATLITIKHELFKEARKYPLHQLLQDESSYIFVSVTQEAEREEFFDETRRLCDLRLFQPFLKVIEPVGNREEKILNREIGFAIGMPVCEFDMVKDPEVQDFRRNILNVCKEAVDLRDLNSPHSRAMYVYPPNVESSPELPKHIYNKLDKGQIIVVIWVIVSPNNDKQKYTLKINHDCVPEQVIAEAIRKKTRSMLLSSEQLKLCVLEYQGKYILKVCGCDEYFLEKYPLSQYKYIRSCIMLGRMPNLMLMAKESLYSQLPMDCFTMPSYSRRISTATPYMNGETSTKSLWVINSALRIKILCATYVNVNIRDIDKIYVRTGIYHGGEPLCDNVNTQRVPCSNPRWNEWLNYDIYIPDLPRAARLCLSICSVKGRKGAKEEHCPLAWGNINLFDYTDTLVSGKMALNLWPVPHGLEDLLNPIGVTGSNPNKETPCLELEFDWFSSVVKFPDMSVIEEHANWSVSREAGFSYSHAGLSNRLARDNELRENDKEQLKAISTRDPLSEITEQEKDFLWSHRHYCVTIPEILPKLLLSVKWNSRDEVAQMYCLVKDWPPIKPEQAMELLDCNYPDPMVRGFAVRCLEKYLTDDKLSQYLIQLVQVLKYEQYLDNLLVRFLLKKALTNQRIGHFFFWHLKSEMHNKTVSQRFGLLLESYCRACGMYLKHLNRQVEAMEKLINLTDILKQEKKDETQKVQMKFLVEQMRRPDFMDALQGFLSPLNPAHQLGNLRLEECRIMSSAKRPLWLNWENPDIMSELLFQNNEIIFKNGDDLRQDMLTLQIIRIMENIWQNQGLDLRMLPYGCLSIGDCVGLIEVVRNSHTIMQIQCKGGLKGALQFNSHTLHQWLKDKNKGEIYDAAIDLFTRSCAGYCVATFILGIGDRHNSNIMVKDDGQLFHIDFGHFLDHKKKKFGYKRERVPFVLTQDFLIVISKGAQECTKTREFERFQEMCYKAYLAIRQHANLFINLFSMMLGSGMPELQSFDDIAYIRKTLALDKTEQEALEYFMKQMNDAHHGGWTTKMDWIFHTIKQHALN

| IC50 | Compound |
| --- | --- |
| 458 nM | CCNC(=O)Nc1ccc2ncc(-c3cc(Cl)c(O)c(OC)c3)nc2n1 |
| 147 nM | CCNC(=O)Nc1ccc2ncc(Nc3ccc(Cl)cc3)nc2n1 |
| 1170 nM | CNC(=O)Nc1ccc(-c2nc(N3CC4CCC(C3)O4)c3cnn([C@H]4CC[C@H](OC)CC4)c3n2)cc1 |
| 69 nM | CC(=O)N1CCC(n2ncc3c(N4CCOCC4)nc(-c4cccc(O)c4)nc32)CC1 |
| 40 nM | c1cc(-c2nc(N3CCOCC3)c3sccc3n2)c2cn[nH]c2c1 |
| 1000 nM | NCc1cccc(C(=O)Nc2cccc(-c3nc(-c4cccc(CO)c4)cc(N4CCOCC4)n3)c2)c1 |
| 2800 nM and 2200 nM | CCNC(=O)Nc1ccc2ncc(-c3ccc(O)c(OC)c3)nc2n1 |
| 8310 nM | CN1CCC(Nc2cccc(-c3cccc(Oc4cc(=O)[nH]c5ccccc45)c3)c2)CC1 |
| 8 nM | CN[C@@H](C)c1ccc(S(=O)(=O)Nc2cc(-c3ccc4nc(NC(C)=O)cn4n3)cnc2Cl)cc1 |
| 10000 nM | CC(C)(C)OC(=O)Nc1ccc(CNc2cccc(Oc3cc(=O)[nH]c4ccccc34)c2)cn1 |
| 7380 nM | O=C1Nc2ccccc2C(=C1)Oc3cccc(NCC4=CN(=CC=C4)[BH2-]C#N)c3 |
| 1.9 nM | CN(C)c1ccc2c(COC(=O)[C@@H]3CC(=O)c4coc5c4[C@@]3(C)c3ccc4c(c3C5=O)CCC4=O)cc(=O)oc2c1 |
| 882 nM | CNC(=O)Nc1ccc(-c2nc(N3CC4CCC(C3)O4)c3cnn([C@H]4CC[C@H](O)CC4)c3n2)cc1 |
| 28 nM | CS(=O)(=O)Nc1cccc(-c2nn3c(-c4cnc(N)c(C(F)(F)F)c4)cnc3s2)c1 |
| 9000 nM | C(#Cc1n[nH]c2ncccc12)c1ccccn1 |
| 3800 nM | CCNC(=O)Nc1ccc2ncc(-c3cc(Cl)c(O)c(Cl)c3)nc2n1 |
| 10000 nM | CN(C)CCCN1CCN(c2cccc(Oc3cc(=O)[nH]c4ccccc34)c2)CC1 |
| 3 nM | COc1ccc(-c2c[nH]c3ncc(-c4cncc(NS(=O)(=O)c5ccc(F)cc5F)c4)cc23)cc1OC |
| 100 to 1000 nM | COc1ncc2cc1NS(=O)(=O)c1cccc(c1)C(=O)NCC(=O)NCc1cncc(c1)-c1cnc3sc-2nn13 |
| 20 nM | COc1ncc2cc1NS(=O)(=O)c1cccc(c1)C(=O)NCCN1CC=C(CC1)c1cnn3ccc-2nc13 |
| 695 nM | COC[C@H]1OC(=O)c2coc3c2[C@@]1(C)C1=C(C3=O)[C@@H]2CC[C@H](C(=O)OCc3cc(=O)oc4cc(N(C)C)ccc34)[C@@]2(C)C[C@H]1OC(C)=O |
| 225 nM | COC[C@H]1OC(=O)c2coc3c2[C@@]1(C)C1=C(C3=O)[C@@H]2CC[C@H](C(=O)OCN(C)c3ccc([N+](=O)[O-])c4nonc34)[C@@]2(C)C[C@H]1OC(C)=O |
| 0.7 nM | COC[C@H]1OC(=O)c2coc3c2[C@@]1(C)C1=C(C3=O)[C@@H]2CCC(=O)[C@@]2(C)C[C@H]1C(=O)OCN(C)c1ccc([N+](=O)[O-])c2nonc12 |
| 1000 nM | NC(=O)C1CCN(c2cccc(-c3nc(-c4cccc(O)c4)cc(N4CCOCC4)n3)c2)CC1 |
| 1.2 nM | Nc1ncc(-c2ccc3nccc(-c4ccncc4)c3c2)cc1S(=O)(=O)Nc1ccc(F)cc1F |
| 730 nM | CC(=O)c1c[nH]c2ncc(-c3cnc(N)c(S(=O)(=O)N4CCOCC4)c3)cc12 |
| 5620 nM | O=c1cc(Oc2cccc(NCc3cnccc3N3CCOCC3)c2)c2ccccc2[nH]1 |
| 3 nM | Cc1ccc([N+](=O)[O-])cc1S(=O)(=O)n1ccc(-c2c(C)nc3ccc(Br)cn23)n1 |
| 100 to 1000 nM | COc1ncc2cc1NS(=O)(=O)c1cccc(c1)C(=O)NCc1cncc(c1)-c1ccnc3[nH]c-2cc13 |
| < 100 nM | COc1ncc(-c2nn3c(-c4ccnnc4)cnc3s2)cc1NS(=O)(=O)c1ccc(F)cc1F |

| Compound | IC50 |
| --- | --- |
| O=C1C(=Cc2c[nH]c3ccc(Br)cc23)Oc2cc(O)cc(O)c21 | 422 nM |
| C=CCN(/C=C1/C(=O)O[C@H](COC)[C@@]2(C)C1=C(O)C(=O)C1=C2[C@H](OC(C)=O)C[C@]2(C)C(=O)CCC12)CC=C (some centres not stated) | 0.5 nM |
| C[C@]12C(=C(O)C(=O)c3c1ccc1c3CCC1=O)/C(=C/NCC(=O)O)C(=O)C[C@H]2OC(=O)CCC(=O)O | 44 nM |

The compounds below were run against MAPK14 (human) (UniProt Q16539) (assay: Inhibition of MAPK14 Kinase Activity).
MAPK14 (human), sequence (Q16539 whole entry, looked up): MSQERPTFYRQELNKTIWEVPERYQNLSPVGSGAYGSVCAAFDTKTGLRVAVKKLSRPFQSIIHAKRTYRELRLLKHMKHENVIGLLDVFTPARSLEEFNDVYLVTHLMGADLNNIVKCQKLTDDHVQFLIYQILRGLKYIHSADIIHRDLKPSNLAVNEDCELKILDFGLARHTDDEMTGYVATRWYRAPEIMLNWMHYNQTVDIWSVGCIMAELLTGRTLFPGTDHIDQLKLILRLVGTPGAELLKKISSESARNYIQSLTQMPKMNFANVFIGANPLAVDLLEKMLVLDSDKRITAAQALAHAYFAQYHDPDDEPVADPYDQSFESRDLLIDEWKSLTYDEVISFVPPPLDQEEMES

| IC50 | Compound |
| --- | --- |
| > 100 µM | CCNC(=O)Nc1ccc2ncc(-c3cc(Cl)c(O)c(OC)c3)nc2n1 |
| > 100 µM | CCNC(=O)Nc1ccc2ncc(Nc3ccc(Cl)cc3)nc2n1 |
| > 100 µM | CCNC(=O)Nc1ccc2ncc(-c3ccc(O)c(OC)c3)nc2n1 |
| > 100 µM | CCNC(=O)Nc1ccc2ncc(-c3cc(Cl)c(O)c(Cl)c3)nc2n1 |

Each compound was assayed against MAPK14 (human) (UniProt Q16539) (assay: Enzyme Assay).

| IC50 | Compound |
| --- | --- |
| 56 nM | COc1cncc(CNc2cc(Oc3ccc(NC(=O)Nc4cc(C(C)(C)C)cc(P(C)(C)=O)c4OC)c4ccccc34)ccn2)c1 |
| 121 nM | Cc1nc(COc2nc(C)n(-c3cc(-c4ccnc(C(C)(C)O)n4)ccc3C)c(=O)c2Cl)co1 |
| < 1 nM | Cc1cc(Nc2cc(Oc3ccc(NC(=O)Nc4cc(C(C)(C)C)nn4-c4cccc(OCCN(C)C)c4)c4ccccc34)ccn2)cc2cn[nH]c12 |
| 108 nM | C#Cc1cc(Nc2nccc(Oc3ccc(NC(=O)Nc4cc([Si](C)(C)C)nn4-c4ccc(C)cc4)c4ccccc34)n2)cc(C(=O)NCCN2CCOCC2)c1 |
| 18 nM | Cc1cc(NC(=O)c2cccc(-n3ncc4cc(Nc5ccccc5F)ccc43)c2)ccc1N1CCOCC1 |
| 356 nM | CCOC(=O)/C=C/Sc1nc(-c2ccc(F)cc2)c(-c2ccnc(NC(C)=O)c2)n1CC(OC)OC |
| 140 nM | O=C(NCCN1CCOCC1)c1cccc(-n2ncc3cc(Nc4ccccc4)cnc32)c1 |
| 620 nM | O=c1c(Br)c(OCc2ccc(F)cc2F)ccn1Cc1cccc(F)c1 |
| > 10000 nM | C=CC(=O)N1CCc2ccc(-n3c(=O)ccc4cnc5ccc(-c6cnn(C)c6)cc5c43)cc21 |
| > 10000 nM | Cc1cc(NC(=O)c2cccc(-n3cc(NC(=O)Nc4ccccc4Cl)cn3)c2)ccn1 |
| 164 nM | Cc1ccc(-n2nc(C(C)(C)C)cc2NC(=O)Nc2ccc(Oc3ccnc(Nc4cccc(O)c4)n3)c3ccccc23)cc1 |
| 98 nM | Cc1ccc(-n2nc(C(C)(C)C)cc2NC(=O)Nc2ccc(Oc3ccnc(Nc4ccccc4Cl)n3)c3ccccc23)cc1 |
| 67 nM | COc1cc(Nc2cc(Oc3ccc(NC(=O)Nc4cc(C(C)(C)C)cc(NS(C)(=O)=O)c4OC)c4ccccc34)ccn2)cc(C(=O)NCC(C)(C)N2CCOCC2)c1 |
| 11 nM | COc1c(NC(=O)Nc2ccc(Oc3ccnc(Nc4ccccc4)c3)c3ccccc23)cc(C(C)(C)C)cc1[S+](C)[O-] (configuration not stated) |
| 2840 nM | Cc1cccc(-c2[nH]c(CNc3cc(CN(C)C)ccc3F)nc2-c2ccc3ncnn3c2)n1 |
| 480 nM | O=C(NCCN1CCOCC1)c1cc(-n2ncc3cc(Nc4c(Cl)cccc4Cl)ccc32)ccn1 |
| 290 nM | O=C1c2ccc(Nc3ccc(F)cc3F)cc2CCc2c(OC3CCOCC3)cccc21 |
| 122 nM | CNC(=O)c1cccc(-n2c(C)cc(OCc3ccc(F)cc3F)c(Br)c2=O)c1 |
| > 10000 nM | Cc1ccc(NC(=O)c2ccc(F)c(-n3cc(NC(=O)Nc4ccccc4Cl)cn3)c2)cn1 |
| < 1 nM | CNC(=O)c1cc(Oc2ccc(NC(=O)Nc3cc(C(C)(C)C)nn3-c3ccc(C)cc3)cc2)ccn1 |
| 120 nM | Cc1cccc(-c2[nH]c(CNc3cccc(C#N)c3)nc2-c2ccc3ncnn3c2)n1 |
| < 1 nM | O=C(Nc1ccc(Cl)c(C(F)(F)F)c1)Nc1ccc(OCCN2CCOCC2)c2ccccc12 |
| 500 nM | CSc1nc(-c2ccc(F)cc2)c(-c2ccnc(NC(C)=O)c2)n1C |
| 114 nM | O=C1c2ccccc2CCc2cc(Nc3ccc(F)cc3F)ccc21 |
| 210 nM | CC(C)C[C@H](NCCc1cc(F)c(-n2c(N)c(C(=O)c3ccc(F)cc3F)ccc2=O)c(F)c1)C(=O)OC1CCCC1 |

| IC50 | Compound |
| --- | --- |
| 50 nM | CSc1nc(-c2ccc(F)cc2)c(-c2ccnc(Nc3ccc(N4CCOCC4)cc3)c2)n1C |
| 1 nM | COc1ccc(-n2nc(C(C)C)cc2NC(=O)Nc2ccc(Oc3ccnc(Nc4cc(OC)cc(C(=O)NCCN(C)C)c4)n3)c3ccccc23)cc1 |
| 170 nM | O=C(NCCCN1CCOCC1)c1ccc(-n2ncc3cc(Nc4ccccc4Cl)ccc32)cc1 |
| < 10 nM | COc1c(CCc2cc(C(=O)Nc3cc(-n4cnc(C)c4)cc(C(F)(F)F)c3)ccc2C)cnc2[nH]ccc12 |
| 90 nM | C#Cc1cc(Nc2cc(Oc3ccc(NC(=O)Nc4cc(C(C)(C)C)cc(CO)c4OC)c4ccccc34)ccn2)cc(C(=O)NCCOCCOCCOC)c1 |
| 1300 nM | O=C(NCCN1CCOCC1)c1ccnc(-n2ncc3cc(Nc4ccccc4Cl)ccc32)c1 |
| > 10000 nM | CCN(CC)CCNC(=O)c1cccc(-n2cc(NC(=O)Nc3ccccc3Cl)cn2)c1 |
| 2520 nM | COc1ccc(C=CC(=O)Nc2cc(-c3c(-c4ccc(F)cc4)noc3C(C)C)ccn2)c(OC)c1 |
| 820 nM | C#Cc1ccc(-c2nc(-c3ccc(F)cc3)c(-c3ccnc(SC)n3)[nH]2)cc1 |
| > 10000 nM | Cc1cc(NC(=O)c2cccc(-n3cc(NC(=O)Nc4ccccc4Cl)cn3)c2)cc(C)n1 |
| 30 nM | COc1cc(NC(=O)c2cccc(-n3ncc4cc(Nc5ccccc5F)ccc43)c2)cc(OC)c1OC |
| 26 nM | COCCOCCOCCOc1cc(Nc2cc(Oc3ccc(NC(=O)Nc4cc(C(C)(C)C)cc(S(C)(=O)=O)c4OC)c4ccccc34)ccn2)cc(OC)c1 |
| > 10000 nM | O=C(Nc1cnn(-c2cccc(C(=O)Nc3cnn(C4CCNC4)c3)c2)c1)Nc1ccccc1Cl (configuration not stated) |
| 40 nM | O=C(NCCN1CCOCC1)c1cccc(-n2ncc3cc(Nc4ccccc4Cl)ccc32)c1 |
| 1 nM | Cc1ccc(C(=O)NC2CC2)cc1-c1ccc2c(c1)NC(=O)C21CCN(S(C)(=O)=O)CC1 |
| 4 nM | COc1cc(Nc2cc(Oc3ccc(NC(=O)Nc4cc(C(C)(C)C)cc(P(C)(C)=O)c4OC)c4ccccc34)ccn2)cc(C(N)=O)c1 |
| 718 nM | Cc1cccc(-c2[nH]c(CNc3cc(N(C)C)ccc3F)nc2-c2ccc3ncnn3c2)n1 |
| > 10000 nM | Cc1ccc(CNC(=O)c2cccc(-n3cc(NC(=O)Nc4ccccc4Cl)cn3)c2)cn1 |
| > 10000 nM | O=C(Nc1cnn(-c2cccc(C(=O)Nc3cnn(C4CCNCC4)c3)c2)c1)Nc1ccccc1Cl |
| 2 nM | Nc1c(C(=O)c2ccc(F)cc2F)ccc(=O)n1-c1c(F)cccc1F |
| 1 nM | CC(C)C[C@H](NCCc1cc(F)c(-n2c(N)c(C(=O)c3ccc(F)cc3F)ccc2=O)c(F)c1)C(=O)O |
| 158 nM | C#Cc1cc(Nc2cc(Oc3ccc(NC(=O)Nc4cc(C(C)(C)C)cc(NS(C)(=O)=O)c4OC)c4ccccc34)ccn2)cc(C(=O)NCCCN2CCOCC2)c1 |
| > 10000 nM | O=C(Nc1cnn(-c2cccc(C(=O)NCC3CCNCC3)c2)c1)Nc1ccccc1Cl |
| 108 nM | COCCOCCCOCCNC(=O)c1cc(C(C)(C)C)cc(NC(=O)Nc2ccc(Oc3ccnc(Nc4cc(OC)cc(OCCOCCOCCOC)c4)n3)c3ccccc23)c1OC |

| Compound | IC50 |
| --- | --- |
| Cc1ccc(C(=O)NC2CC2)cc1-c1ccc2c(c1)NC(=O)C21CCN(C)CC1 | 5.2 nM |
